In patent US20080269279A1, “Substituted furo[2,3-B] pyridine derivatives as cannabinoid-1 receptor modulators” (priority 2007, published 2008):
Where two headings read alike, the source gives them in different places.

Legend:
[1] = biological target: T1, recombinant human CB1 receptor (Homo sapiens, UniProt P21554); experiment: Cannabinoid Receptor-1 (CB1) Binding Assay ([3H]CP-55940 displacement)
T1 construct: expressed in transfected cells
Method: Binding affinity determination is based on recombinant human CB1 receptor expressed in Chinese Hamster Ovary (CHO) cells (Felder et al, Mol. Pharmacol. 48: 443-450, 1995). Total assay volume is 250 μl (240 μl CB1 receptor membrane solution plus 5 μl test compound solution plus 5 μl [3H]CP-55940 solution). Final concentration of [3H]CP-55940 is 0.6 nM. Binding buffer contains 50 mM Tris-HCl, pH 7.4, 2.5 mM EDTA, 5 mM MgCl2, 0.5 mg/mL fatty acid free bovine serum albumin and protease inhibitors (Cat#P8340, from Sigma). To initiate the binding reaction, 5 μl of radioligand solution is added, the mixture is incubated with gentle shaking on a shaker for 1.5 h at 30° C. The binding is terminated by using 96-well harvester and filtering through GF/C filter presoaked in 0.05% polyethylenimine. The bound radiolabel is quantitated using scintillation counter. Apparent binding affinities for various compounds are calculated from IC50 values (DeBlasi et al., Trends Pharmacol Sci 10: 227-229, 1989).

[2] = biological target: T1, recombinant human CB1 receptor; experiment: Cannabinoid Receptor-1 (CB1) Functional Activity Assay (intracellular cAMP in CB1-CHO cells); assay type: cell-based; details: for functional mode at CB1 receptor: CB1 functional activity assay, cAMP
Method: The functional activation of CB1 receptor is based on recombinant human CB1 receptor expressed in CHO cells (Felder et al, Mol. Pharmacol. 48: 443-450, 1995). To determine the agonist activity or inverse agonist activity of any test compound, 50 ul of CB1-CHO cell suspension are mixed with test compound and 70 ul assay buffer containing 0.34 mM 3-isobutyl-1-methylxanthine and 5.1 uM of forskolin in 96-well plates. The assay buffer is comprised of Earle's Balanced Salt Solution supplemented with 5 mM MgCl2 1 mM glutamine, 10 mM HEPES, and 1 mg/mL bovine serum albumin. The mixture is incubated at room temperature for 30 minutes, and terminated by adding 30 ul/well of 0.5M HCl. The total intracellular cAMP level is quantitated using the New England Nuclear Flashplate and cAMP radioimmunoassay kit.
To determine the antagonist activity of test compound, the reaction mixture also contains 0.5 nM of the agonist CP55940 (or 50 nM of methanandamide), and the reversal of the CP55940 (or methanandamide) effect is quantitated with increasing concentration of the test compound. Intracellular cAMP is determined as described above. An IC50 value for the test compound is calculated from the titration curve.

[3] = test system: human GABA α1β3β2 receptors; experiment: GABAa, 3H-muscimol binding assay; details: for % GABA Example: activity at 10 μM as percentage of activity of control compound P18 at 10 μM (increase of 3H-muscimol binding); for % GABA Parent: parent compound without R^4 heteroaryl, activity at 10 μM as percentage of activity of control compound P18 at 10 μM
Method: Membranes from recombinant Ltk cells expressing human GABA α1β3β2 receptors were suspended in an ice-cold solution of 100 mM KCl, 10 mM KH2PO4, adjusted to pH=7.4 with 1 M KOH. Tritiated muscimol (PerkinElmer, Wellesley, Mass.) at a concentration of 2 nM, and serial five-fold dilutions of test compounds at 10 μM, 2.0 μM, 400 nM, 80 nM, 16 nM, 3.2 nM, 0.64 nM and 0.13 nM were mixed in 96-well plates containing 200 μL of membrane suspension. Cold muscimol and compound P18 were used as negative and positive controls respectively. The assay mixture was incubated at 4° C. for 2 hours, then harvested on GF/C filter plates and washed with ice-cold 50 mM Tris-Ci buffer. The filter plates were dried and counted in a Wallac MicroBeta® Trilux detector (Model 1450-030; PerkinElmer, Wellesley, Mass.), and the data were downloaded and analyzed using Prism 3.0. The activity of compound P18 at 10 μM was used as reference for the test compounds, and it was expressed as increasing ^3H-muscimol binding by 100%, whereas cold muscimol at 2 μM antagonized ^3H-muscimol binding by 100%. The tested compound's activity at 10 μM was expressed as a percentage of compound P18's activity at 10 μM.
As a reference, the parent compound (the compound not substituted with a R^4 heteroaryl, such as pyrazole or 1,2,4-oxadiazole, as indicated below) is also shown with its Gamma Amino Butyric Acid (GABA) Receptor activity. […] As a result, the compounds of the present invention in which R^4 is a heteroaryl, such as pyrazole or 1,2,4-oxadiazole, have the unexpected benefits of minimizing off target activity at the GABA receptor.
Note: % GABA is defined as the GABA activity of the indicated compound expressed as a percentage of the activity of control compound P18. NA=data not available.

[4] = recombinant human CB1 receptor expressed in CHO cells, 0.6 nM [3H]CP-55940, read-out: CB1 binding IC50
[5] = CB1-CHO cells, forskolin-stimulated cAMP, read-out: EC50 in the CB1 functional activity assay

T1 sequence (P21554 whole entry): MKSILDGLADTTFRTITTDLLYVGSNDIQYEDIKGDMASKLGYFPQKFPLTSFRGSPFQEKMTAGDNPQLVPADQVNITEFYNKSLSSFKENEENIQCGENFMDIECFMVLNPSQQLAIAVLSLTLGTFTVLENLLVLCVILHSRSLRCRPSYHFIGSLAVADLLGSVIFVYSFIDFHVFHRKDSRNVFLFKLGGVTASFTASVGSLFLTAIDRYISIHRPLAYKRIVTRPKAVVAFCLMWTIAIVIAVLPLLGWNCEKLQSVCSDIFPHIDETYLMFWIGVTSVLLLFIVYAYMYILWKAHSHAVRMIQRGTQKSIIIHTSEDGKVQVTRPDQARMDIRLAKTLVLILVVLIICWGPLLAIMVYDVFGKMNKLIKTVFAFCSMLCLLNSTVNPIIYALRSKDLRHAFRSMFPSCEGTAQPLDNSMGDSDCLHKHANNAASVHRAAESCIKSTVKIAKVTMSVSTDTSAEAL

In the case of `CC(=O)Nc1c(C(=O)C(C)(C)O)oc2nc(-c3ccc(-c4cn[nH]c4)cc3Cl)c(-c3ccc(Cl)cc3)cc12` [Example 1, N-[5-(4-Chlorophenyl)-6-[2-chloro-4-(1H-pyrazol-4-yl)phenyl]-2-(2-hydroxy-2-methylpropanoyl)furo[2,3-b]pyridin-3-yl]acetamide], the IC50 [1, 4] is reported as 2 nM, the EC50 [2, 5] is reported as under 20 nM and the “functional mode at CB1 receptor” value [2] is reported as “functional inverse agonists”. For the same compound, the “% GABA Example” value [3] was 38%.

For `CC(=O)Nc1c(C(=O)C(C)C)oc2nc(-c3ccc(-c4cc[nH]n4)cc3Cl)c(-c3ccc(Cl)cc3)cc12` [Example 2, N-{5-(4-Chlorophenyl)-6-[2-chloro-4-(1H-pyrazol-3-yl)phenyl]-2-isobutyrylfuro[2,3-b]pyridin-3-yl}acetamide], the IC50 [1, 4] was 6 nM, the EC50 [2, 5] was under 20 nM and the “functional mode at CB1 receptor” value [2] was “functional inverse agonists”. For the same compound, the “% GABA Example” value [3] was 17%.

For `Cc1n[nH]cc1-c1ccc(-c2nc3oc(C(=O)C(C)(C)C)c(C(N)=O)c3cc2-c2ccc(Cl)cc2)c(Cl)c1` [Example 3, 6-[2-chloro-4-(3-methyl-1H-pyrazol-4-yl)phenyl]-5-(4-chlorophenyl)-2-(2,2-dimethylpropanoyl)furo[2,3-b]pyridine-3-carboxamide], the IC50 [1, 4] was 1 nM, the EC50 [2, 5] was under 20 nM and the “functional mode at CB1 receptor” value [2] was “functional inverse agonists”. For the same compound, the “% GABA Example” value [3] was 9%.

With `CC(C)(C)C(=O)c1oc2nc(-c3ccc(-c4cn[nH]c4)cc3Cl)c(-c3ccc(Cl)cc3)cc2c1N` [Example 7, 1-{3-Amino-5-(4-chlorophenyl)-6-[2-chloro-4-(1H-pyrazol-4-yl)phenyl]furo[2,3-b]pyridin-2-yl}-2,2-dimethylpropan-1-one] the IC50 [1, 4] was 1 nM, the EC50 [2, 5] was under 20 nM and the “functional mode at CB1 receptor” value [2] was “functional inverse agonists”. For the same compound, the “% GABA Example” value [3] was 17%.

In the case of `Cc1c(S(=O)(=O)C(C)(C)C)oc2nc(-c3ccc(-c4cn[nH]c4)cc3Cl)c(-c3ccc(Cl)cc3)cc12` [Example 11, 2-(Tert-butylsulfonyl)-5-(4-chlorophenyl)-6-[2-chloro-4-(1H-pyrazol-4-yl)phenyl]-3-methylfuro[2,3-b]pyridine], the IC50 [1, 4] is reported as 1 nM, the EC50 [2, 5] is reported as under 20 nM and the “functional mode at CB1 receptor” value [2] is reported as “functional inverse agonists”. For the same compound, the “% GABA Example” value [3] was 7%.

With `Cc1n[nH]cc1-c1ccc(-c2nc3oc(C(=O)C(C)(C)C)c(CO)c3cc2-c2ccc(Cl)cc2)c(Cl)c1` [Example 37, 1-[6-[2-Chloro-4-(3-methyl-1H-pyrazol-4-yl)phenyl]-5-(4-chlorophenyl)-3-(hydroxymethyl)furo[2,3-b]pyridin-2-yl]-2,2-dimethylpropan-1-one] the IC50 [1, 4] was 1 nM, the EC50 [2, 5] was under 20 nM and the “functional mode at CB1 receptor” value [2] was “functional inverse agonists”. The “% GABA Example” value [3] was 14%.

`CC(=O)c1c(C(=O)C(C)C)oc2nc(-c3ccc(-c4c[nH]nc4C)cc3Cl)c(-c3ccc(Cl)cc3)cc12` [Example 38, 1-[3-Acetyl-6-[2-chloro-4-(3-methyl-1H-pyrazol-4-yl)phenyl]-5-(4-chlorophenyl)furo[2,3-b]pyridin-2-yl]-2-methylpropan-1-one] was tested, and the IC50 [1, 4] was 3 nM, the EC50 [2, 5] was under 20 nM and the “functional mode at CB1 receptor” value [2] was “functional inverse agonists”. The “% GABA Example” value [3] was 39%.

In the case of `CC(=O)c1c(C(=O)C(C)(C)C)oc2nc(-c3ccc(-c4c[nH]nc4C)cc3Cl)c(-c3ccc(Cl)cc3)cc12` [Example 40, 1-[3-Acetyl-6-[2-chloro-4-(3-methyl-1H-pyrazol-4-yl)phenyl]-5-(4-chlorophenyl)furo[2,3-b]pyridin-2-yl]-2,2-dimethylpropan-1-one], the IC50 [1] is reported as 1 nM, the EC50 [2] is reported as under 20 nM and the “functional mode at CB1 receptor” value [2] is reported as “functional inverse agonists”. The “% GABA Example” value [3] was 12%.

For `CC(=O)Nc1c(C(=O)C(C)(C)O)oc2nc(-c3ccc(-c4c[nH]nc4C)cc3Cl)c(-c3ccc(Cl)cc3)cc12` [Example 41, N-[6-[2-Chloro-4-(3-methyl-1H-pyrazol-4-yl)phenyl]-5-(4-chlorophenyl)-2-(2-hydroxy-2-methylpropanoyl)furo[2,3-b]pyridin-3-yl]acetamide], the IC50 [1, 4] was 5 nM, the EC50 [2, 5] was under 20 nM and the “functional mode at CB1 receptor” value [2] was “functional inverse agonists”. The “% GABA Example” value [3] was 35%.

With `CC(C)(C)C(=O)c1oc2nc(-c3ccc(-c4ncon4)cc3Cl)c(-c3ccc(Cl)cc3)cc2c1NC(=O)CO` [Example 43, N-[6-[2-Chloro-4-(1,2,4-oxadiazol-3-yl)phenyl]-5-(4-chlorophenyl)-2-(2,2-dimethylpropanoyl)furo[2,3-b]pyridin-3-yl]-2-hydroxyacetamide] the IC50 [1, 4] was 0.4 nM, the EC50 [2, 5] was under 20 nM and the “functional mode at CB1 receptor” value [2] was “functional inverse agonists”. For the same compound, the “% GABA Example” value [3] was 41%.

For `C[C@H](O)C(=O)Nc1c(C(=O)C(C)(C)C)oc2nc(-c3ccccc3Cl)c(-c3ccc(Cl)cc3)cc12` [Example P11, reference compound], the “% GABA Parent” value [3] was 94%.

In the case of `CC(C)(C)C(=O)c1oc2nc(-c3ccccc3Cl)c(-c3ccc(Cl)cc3)cc2c1C(N)=O` [Example P12, reference compound], the “% GABA Parent” value [3] is reported as 40%.

In the case of `CC(C)(O)C(=O)c1oc2nc(-c3ccccc3Cl)c(-c3ccc(Cl)cc3)cc2c1N` [Example P13, reference compound], the “% GABA Parent” value [3] is reported as 91%.

With `Cc1c(C(=O)C(C)C)oc2nc(-c3ccccc3Cl)c(-c3ccc(Cl)cc3)cc12` [Example P14, reference compound] the “% GABA Parent” value [3] was 51%.

With `CCC(=O)c1oc2nc(-c3ccccc3Cl)c(-c3ccc(Cl)cc3)cc2c1C` [Example P15, reference compound] the “% GABA Parent” value [3] was 50%.

For `CC(C)(C)C(=O)c1oc2nc(-c3ccccc3Cl)c(-c3ccc(Cl)cc3)cc2c1NC(=O)CO` [Example P16, reference compound], the “% GABA Parent” value [3] was 90%.

With `CC(C)C(=O)c1oc2nc(-c3ccccc3Cl)c(-c3ccc(Cl)cc3)cc2c1N1CCCC1=O` [Example P17, reference compound] the “% GABA Parent” value [3] was 100%.

In the case of `CC(C)(O)C(=O)c1oc2nc(-c3ccccc3Cl)c(-c3ccc(Cl)cc3)cc2c1NC(=O)CO` [Example P18, reference compound], the “% GABA Parent” value [3] is reported as 100%.

In the case of `CCc1c(C(=O)C(C)(C)O)oc2nc(-c3ccccc3Cl)c(-c3ccc(Cl)cc3)cc12` [Example P19, reference compound], the “% GABA Parent” value [3] is reported as 96%.

In the case of `CC(C)(C)C(=O)c1oc2nc(-c3ccccc3Cl)c(-c3ccc(Cl)cc3)cc2c1CO` [Example P20, reference compound], the “% GABA Parent” value [3] is reported as 50%.

`CC(=O)c1c(C(=O)C(C)(C)C)oc2nc(-c3ccccc3Cl)c(-c3ccc(Cl)cc3)cc12` [Example P21, reference compound] was tested, and the “% GABA Parent” value [3] was 62%.
